Reference: US20090060875A1, “HCV Vaccines for Chronic HCV Patients” (INTERCELL AG, priority 2004, published 2009)

Columns and labels:
[1] = standard therapy, background; cited from earlier work
[2] = system: interferon gamma secreting T-cells (CD4+ Helper- and CD8+ cytotoxic T-cells); assay: Interferon-gamma ELIspot assay in phase 2 study of chronic HCV patients; format: in vivo, human; settings: chronic HCV patients (FIG. 2)
Text: (§1) In the present clinical study, each group consisted of 12 subjects, positive for HLA-A2. Subjects received 6 vaccinations in monthly intervals (at visits 3 to 8). Blood for immunological analyses was drawn prior vaccination and at visits 6 to 8, one month after last vaccination (visit 9), 3 months after last vaccination (visit 10) and 6 months after last vaccination (visit 11). For immunological monitoring of clinical trials, state-of-the-art T cell assays to determine immunological endpoints under GLP/GCP compliance were applied: Interferon-gamma ELIspot Assay, T cell Proliferation Assay, HLA-tetramer/FACS assay. These assays allow reliable measurements of epitope-specific T cell responses induced by the therapeutic HCV vaccine IC41. The vaccine-induced T cell immune responses serve as surrogate parameters of efficacy (Keilholz et al. 2002).
As secondary endpoints T-cell immunogenicity was determined by interferon gamma ELIspot. ELIspot allows quantification of peptide-specific, functional (i.e. cytokine-secreting) T cells in biological samples like human blood. The basis of the assay is that, T cells upon stimulation with a peptide specifically recognized by the T cell receptor react by secretion of cytokines like IFN-γ. […]
The filter-wells of this plate are coated with a Mab specific for IFN-γ. […] Spots can be counted using automated plate readers. […]

CD4+ Helper-T-cells = assay: T-cell proliferation assay ([3H]-thymidine) in phase 2 study of chronic HCV patients; format: in vivo, human; settings: vaccinations at month 0-5, stimulation indices, median of 12 patients per group (FIG. 1), listed as poly-L-Arginine alone
Text: as §1
As primary endpoint T-cell immunogenicity was determined by a T-cell proliferation assay. […] Proliferation of cells can be measured by a variety of means; among the most sensitive approaches ranks incorporation of radioactively labeled thymidine into DNA synthesized prior cell division. […] Cells are then harvested onto a filter plate: medium containing free radioactivity is washed away, whereas DNA sticks to the filter. Incorporated radioactivity can be quantified by means of a beta-scintillation counter determining counts-per-minute (cpm). […]

Row | Compound | Side effects [1] | Induction of interferon gamma secreting T-cells (type I T-cell response) [2] | CD4+ Helper-T-cell proliferation (induction of significant proliferative response) (CD4+ Helper-T-cells)
1 | NC(=O)c1ncn([C@@H]2O[C@H](CO)[C@@H](O)[C@H]2O)n1 [Ribavirin, ribavirin] | teratogenic, mutagenic and carcinogenic potency |  | 
2 | Poly-L-Arginine |  | cannot induce any response | not and neither peptides alone nor poly-L-Arginine alone have this ability
